Assay results reported in PMC11995724, “Antibiotic target discovery by integrated phenotypic and activity-based profiling of electrophilic fragments” (Cell chemical biology, 2025).

Assay: in vitro
Details: human, hek293t cells

SMILES | viability at 48 h, 25 µM
CC(Cl)C(=O)NCC(c1ccccc1)c1nnc[nH]1 (stereo not shown) [7-G15, 2-chloro-N-[2-phenyl-2-(4H-1,2,4-triazol-3-yl)ethyl]propanamide] | 114%
Cc1cc(C=C(C#N)C(=O)Nc2ccncc2)c(C)n1C1CC1 [8-K14, 2-cyano-3-(1-cyclopropyl-2,5-dimethyl-1H-pyrrol-3-yl)-N-(pyridin-4-yl)prop-2-enamide] | 71.6%
CCCn1c(C)cc(C=C(C#N)C(=O)N2CCC2)c1C [8-L08, 2-(azetidine-1-carbonyl)-3-(2,5-dimethyl-1-propyl-1H-pyrrol-3-yl)prop-2-enenitrile] | 77.4%
Cc1cc(C(=O)CCl)c(C)n1-c1cc(Cl)cc(Cl)c1 [10-I04, 2-chloro-1-[1-(3,5-dichlorophenyl)-2,5-dimethyl-1H-pyrrol-3-yl]ethan-1-one] | 0.227%
CC(Cl)C(=O)N(C)C1CCN(c2ccccn2)CC1 (stereo not shown) [6-J20, 2-chloro-N-methyl-N-[1-(pyridin-2-yl)piperidin-4-yl]propanamide] | 106%
O=C(CCl)NCCC1CCCC1(F)F (stereo not shown) [7-P04, 2-chloro-N-[2-(2,2-difluorocyclopentyl)ethyl]acetamide] | 1.08%
O=C(CCl)Nc1ccc(Oc2cccc(Cl)c2)cc1 [6-C18, 2-chloro-N-[4-(3-chlorophenoxy)phenyl]acetamide] | 0.765%
O=C(CCl)N1N=C(c2ccccc2)CC1c1ccccc1 (stereo not shown) [4-I20, 2-chloro-1-(3,5-diphenyl-4,5-dihydro-1H-pyrazol-1-yl)ethan-1-one] | 0.141%
COc1cc(C=C(C#N)C(=O)Nc2ccc3c(c2)OCCO3)ccc1O [8-N06, 2-cyano-N-(2,3-dihydro-1,4-benzodioxin-6-yl)-3-(4-hydroxy-3-methoxyphenyl)prop-2-enamide] | 91.5%
CC1CCCC(NC(=O)C(C#N)=Cc2ccccc2)C1C (stereo not shown) [8-C19, 2-cyano-N-(2,3-dimethylcyclohexyl)-3-phenylprop-2-enamide] | 27.3%
COc1ccccc1C1CSCCCN1C(=O)CCl (stereo not shown) [5-O16, 2-chloro-1-[3-(2-methoxyphenyl)-1,4-thiazepan-4-yl]ethan-1-one] | 78.1%
CC(C)NC(=O)C(C#N)=Cc1ccc(-c2ccc([N+](=O)[O-])cc2)o1 [8-I19, 2-cyano-3-[5-(4-nitrophenyl)furan-2-yl]-N-(propan-2-yl)prop-2-enamide] | 93%
N#CC(=Cc1cccc(Cl)c1Cl)C(=O)Nc1ccc(F)cc1 [8-P22, 2-cyano-3-(2,3-dichlorophenyl)-N-(4-fluorophenyl)prop-2-enamide] | 92.8%
CCOC(=O)c1c(C)[nH]c(C(=O)C(C)Cl)c1C (stereo not shown) [10-B22, ethyl 5-(2-chloropropanoyl)-2,4-dimethyl-1H-pyrrole-3-carboxylate] | 95.2%
C=CC(=O)N(Cc1cccs1)C1CCc2cnn(C(C)C)c2C1 (stereo not shown) [1-L15, N-[1-(propan-2-yl)-4,5,6,7-tetrahydro-1H-indazol-6-yl]-N-[(thiophen-2-yl)methyl]prop-2-enamide] | 82.3%
C=CC(=O)N(Cc1ccc2cnn(C)c2c1)CC(C)(C)C [2-O05, N-(2,2-dimethylpropyl)-N-[(1-methyl-1H-indazol-6-yl)methyl]prop-2-enamide] | 102%
C=CC(=O)NCc1cccc(-n2cccn2)n1 [1-M14, N-{[6-(1H-pyrazol-1-yl)pyridin-2-yl]methyl}prop-2-enamide] | 93.2%
CCC1SC(=C(C#N)C(=O)NC)N(c2ccc(Cl)cc2)C1=O (stereo not shown) [8-L15, 2-[3-(4-chlorophenyl)-5-ethyl-4-oxo-1,3-thiazolidin-2-ylidene]-2-cyano-N-methylacetamide] | 132%
C=CC(=O)NCCCc1conc1C [2-N13, N-[3-(3-methyl-1,2-oxazol-4-yl)propyl]prop-2-enamide] | 70.3%
O=C(CCl)Cc1ccc(Cl)cc1Cl [10-A15, 1-chloro-3-(2,4-dichlorophenyl)propan-2-one] | 0.248%
C=CC(=O)N(C)CC(=O)N1CCCC1c1nc(C)no1 (stereo not shown) [2-M04, N-methyl-N-{2-[2-(3-methyl-1,2,4-oxadiazol-5-yl)pyrrolidin-1-yl]-2-oxoethyl}prop-2-enamide] | 78.5%
COc1ccccc1CN1C(=O)C=CC1=O [10-P21, 1-[(2-methoxyphenyl)methyl]-2,5-dihydro-1H-pyrrole-2,5-dione] | 105%
C=CC(=O)NCC1(S(=O)(=O)CC)CC1 [3-O13, N-{[1-(ethanesulfonyl)cyclopropyl]methyl}prop-2-enamide] | 48.1%
C=CC(=O)NCCC(=O)N1CCc2cc(C)c([N+](=O)[O-])cc21 [3-F08, N-[3-(5-methyl-6-nitro-2,3-dihydro-1H-indol-1-yl)-3-oxopropyl]prop-2-enamide] | 82.7%
C=CC(=O)NCc1cnoc1C [3-C22, N-[(5-methyl-1,2-oxazol-4-yl)methyl]prop-2-enamide] | 51.5%
Cc1ccc(C)c(NC(=O)CN(C)C(=O)CCl)c1 [6-N04, 2-chloro-N-{[(2,5-dimethylphenyl)carbamoyl]methyl}-N-methylacetamide] | 0.906%

SMILES | viability at 48 h, 25 µM
CNC(=O)c1cc(OC2CCCN(C(=O)CCl)C2)ccn1 (stereo not shown) [5-P05, 4-{[1-(2-chloroacetyl)piperidin-3-yl]oxy}-N-methylpyridine-2-carboxamide] | 1.84%
C=CC(=O)N(CC)Cc1nc2ccsc2c(=O)[nH]1 [3-P16, N-ethyl-N-({4-oxo-3H,4H-thieno[3,2-d]pyrimidin-2-yl}methyl)prop-2-enamide] | 78.2%
Cc1cc(C)c(-c2csc(NC(=O)CCl)n2)cc1C [4-G17, 2-chloro-N-[4-(2,4,5-trimethylphenyl)-1,3-thiazol-2-yl]acetamide] | 0.339%
C=CC(=O)N1CCCC(NS(=O)(=O)c2cccc(F)c2)C1 (stereo not shown) [3-G15, 3-fluoro-N-[1-(prop-2-enoyl)piperidin-3-yl]benzene-1-sulfonamide] | 58%
COc1ccccc1NC(=O)C(C#N)=Cc1ccc(F)cc1 [8-E18, 2-cyano-3-(4-fluorophenyl)-N-(2-methoxyphenyl)prop-2-enamide] | 81%
N#CC(=Cc1cccc(O)c1)C(=O)NCc1ccco1 [9-F21, 2-cyano-N-[(furan-2-yl)methyl]-3-(3-hydroxyphenyl)prop-2-enamide] | 119%
CC(Cl)C(=O)N1CC(=O)Nc2ccccc21 (stereo not shown) [6-E07, 4-(2-chloropropanoyl)-1,2,3,4-tetrahydroquinoxalin-2-one] | 117%
CC(C)NC(=O)C(C#N)=Cc1ccccc1Cl [9-A09, 3-(2-chlorophenyl)-2-cyano-N-(propan-2-yl)prop-2-enamide] | 95.9%
O=C(CCl)NCC(=O)N1CCC(Cc2ccccc2)CC1 [6-F04, N-[2-(4-benzylpiperidin-1-yl)-2-oxoethyl]-2-chloroacetamide] | 21.7%
Cc1cccc(NC(=O)C(C#N)=Cc2ccc(F)c(F)c2)c1 [8-I16, 2-cyano-3-(3,4-difluorophenyl)-N-(3-methylphenyl)prop-2-enamide] | 75.5%
C=CC(=O)NC1CCSC(C)C1 (stereo not shown) [1-J06, N-(2-methylthian-4-yl)prop-2-enamide] | 78.4%
C=CC(=O)Nc1cc(-c2ccco2)nn1C(C)(C)C [1-K19, N-[1-tert-butyl-3-(furan-2-yl)-1H-pyrazol-5-yl]prop-2-enamide] | 118%
C=CC(=O)N1CCCN(S(=O)(=O)c2ccc(OC)cc2)CC1 [3-G10, 1-[4-(4-methoxybenzenesulfonyl)-1,4-diazepan-1-yl]prop-2-en-1-one] | 96.8%
C=CC(=O)Nc1cnn(CCN2CCCC2=O)c1 [3-M18, N-{1-[2-(2-oxopyrrolidin-1-yl)ethyl]-1H-pyrazol-4-yl}prop-2-enamide] | 90%
CC(Cl)C(=O)N(C)C[C@@H]1C[C@H](F)CN1c1ccnc(N(C)C)n1 (stereo partly drawn) [7-K16, 2-chloro-N-{[(2S,4S)-1-[2-(dimethylamino)pyrimidin-4-yl]-4-fluoropyrrolidin-2-yl]methyl}-N-methylpropanamide] | 79.5%
CCCc1ccc(C(=O)CCl)cc1 [10-C04, 2-chloro-1-(4-propylphenyl)ethan-1-one] | 54.6%
C=CC(=O)NCCNS(=O)(=O)c1cc(C)ccc1F [2-L11, N-[2-(2-fluoro-5-methylbenzenesulfonamido)ethyl]prop-2-enamide] | 39.4%
CC(Cl)C(=O)N[C@H]1CN(Cc2ccccc2)C[C@@H]1c1ccccc1 (mixture of isomers) [7-N09, rac-N-[(3R,4S)-1-benzyl-4-phenylpyrrolidin-3-yl]-2-chloropropanamide] | 88.2%
N#CC(=Cc1ccco1)C(=O)NCCc1ccc(F)cc1F [9-B11, 2-cyano-N-[2-(2,4-difluorophenyl)ethyl]-3-(furan-2-yl)prop-2-enamide] | 122%
C=CC(=O)NCc1ccc(OC)cc1 [1-K10, N-[(4-methoxyphenyl)methyl]prop-2-enamide] | 92%
CC(Cl)C(=O)N1C2CCC1CC(c1ccnn1C)C2 (stereo not shown) [7-O15, 2-chloro-1-[3-(1-methyl-1H-pyrazol-5-yl)-8-azabicyclo[3.2.1]octan-8-yl]propan-1-one] | 88.6%
CC(C)c1ccc(Cn2[nH]ccc2=NC(=O)CCl)cc1 [5-P12, 2-chloro-N-(2-{[4-(propan-2-yl)phenyl]methyl}-2,3-dihydro-1H-pyrazol-3-ylidene)acetamide] | -0.215%
COCC(C)NC(=O)C(C#N)=Cc1cc2cc(F)ccc2o1 (stereo not shown) [9-F04, 2-cyano-3-(5-fluoro-1-benzofuran-2-yl)-N-(1-methoxypropan-2-yl)prop-2-enamide] | 99.8%
Cc1ccccc1NC(=O)C(C#N)=Cc1ccc2c(c1)OCCO2 [8-J03, 2-cyano-3-(2,3-dihydro-1,4-benzodioxin-6-yl)-N-(2-methylphenyl)prop-2-enamide] | 93.5%
Cc1ccc(Sc2ccc(NC(=O)CCl)cc2)c(C)c1 [4-I03, 2-chloro-N-{4-[(2,4-dimethylphenyl)sulfanyl]phenyl}acetamide] | 0.0415%
N#CC(C(=O)CCl)=C1Nc2ccccc2S1 [10-J04, 4-chloro-2-(2,3-dihydro-1,3-benzothiazol-2-ylidene)-3-oxobutanenitrile] | 0.855%
